Measurements reported in patent publication US20160150782A1, “USE OF SELECTED PYRIDONE CARBOXAMIDES OR SALTS THEREOF AS ACTIVE SUBSTANCES AGAINST ABIOTIC PLANT STRESS” (BAYER CROPSCIENCE AKTIENGESELLSCHAFT, priority 2013, published 2016).

Tested on: Zea mays (corn)
Test: Drought stress test on sprayed greenhouse plants, visual damage scoring (Table 2)
Assay type: in vivo
Set-up: key: reduction in damage intensity, damage assessed in %
Conditions: efficacy = reduction in damage intensity, dosage 2.5 g/ha, spray WP, 600 l/ha water
Protocol: (§1) Seeds of monocotyledonous and dicotyledonous crop plants are sown in sandy loam in plastic or wood-fiber pots, covered with soil or sand and cultivated in a greenhouse under good growth conditions. The test plants are treated at the early leaf stage (BBCH10-BBCH13). To assure uniform water supply before commencement of stress, the potted plants are supplied with water by dam irrigation prior to substance application. The inventive compounds, formulated in the form of wettable powders (WP), are sprayed onto the green parts of the plants as an aqueous suspension at an equivalent water application rate of 600 I/ha with addition of 0.2% wetting agent (e.g. agrotin). Substance application is followed immediately by stress treatment of the plants. For this purpose, the wood-fiber pots are transferred in plastic inserts in order to prevent them from subsequently drying out too quickly. Drought stress is induced by gradual drying out under the following conditions: “Day”: 14 hours with illumination at 26-30° C. “Night”: 10 hours without illumination at 18-20° C. The duration of the respective stress phases is guided mainly by the condition of the stressed control plants. […] The end of the stress phase is followed by an approx. 4-14-day recovery phase, during which the plants are once again kept under good growth conditions in a greenhouse. The duration of the recovery phase is guided mainly by when the trial plants have attained a state which enables visual scoring of potential effects, and is therefore variable. […] The damage intensity is at first assessed in percent.

SMILES | E (ZEAMX)
COCCNC(=O)c1cc(Br)c(C)[nH]c1=O [compound 2423] | >5

Same assay, conditions: efficacy = reduction in damage intensity, dosage 25 g/ha, spray WP, 600 l/ha water

SMILES | E (ZEAMX)
COCCNC(=O)c1cc(C)c(C)[nH]c1=O [compound 46] | >5
COC(=O)CNC(=O)c1cc(C)c(C)[nH]c1=O [compound 59] | >5
CCCNC(=O)c1cc(C)c(C(F)(F)C(F)(F)F)[nH]c1=O [compound 223] | >5
COCCNC(=O)c1cc(C)c(C(F)(F)C(F)(F)F)[nH]c1=O [compound 266] | >5
CCc1cc(C(=O)NCC(=O)OC)c(=O)[nH]c1C(F)(F)F [compound 610] | >5
CCc1cc(C(=O)NC(C)C)c(=O)[nH]c1C(F)(F)C(F)(F)F [compound 664] | >5
CCc1cc(C(=O)NC(C)CC(C)C)c(=O)[nH]c1C(F)(F)C(F)(F)F (centres unmarked) [compound 696] | >5
CCc1cc(C(=O)NC2CCC2)c(=O)[nH]c1C(F)(F)Cl [compound 777] | >5
CCNC(=O)c1cc(Cl)c(C(F)(F)F)[nH]c1=O [compound 1212] | >5
CCCNC(=O)c1cc(Cl)c(C)[nH]c1=O [compound 2270] | >5
CCc1[nH]c(=O)c(C(=O)N(C)CC(=O)OC)cc1C [compound 2817] | >5
CCCNC(=O)c1cc(I)c(CCC)[nH]c1=O [compound 3920] | >5
CCCc1[nH]c(=O)c(C(=O)NCCC(C)C)cc1I [compound 3940] | >5

Same assay, conditions: efficacy = reduction in damage intensity, dosage 250 g/ha, spray WP, 600 l/ha water

SMILES | E (ZEAMX)
CCCNC(=O)c1cc(C)c(C)[nH]c1=O [compound 3] | >5
Cc1cc(C(=O)NC(C)CC(C)C)c(=O)[nH]c1C (centres unmarked) [compound 36] | >5
Cc1cc(C(=O)NCC(=O)O)c(=O)[nH]c1C(F)(F)F [compound 170] | >5
Cc1cc(C(=O)N(C)c2ccccc2)c(=O)[nH]c1C(F)(F)F [compound 219, N,5-Dimethyl-2-oxo-N-phenyl-6-(trifluoromethyl)-1,2-dihydropyridine-3-carboxamide] | >5
CNC(=O)c1cc(C)c(C(F)(F)C(F)(F)F)[nH]c1=O [compound 221] | >5
CCNC(=O)c1cc(C)c(C(F)(F)C(F)(F)F)[nH]c1=O [compound 222] | >5
CCCc1cc(C(=O)NCC(=O)OC)c(=O)[nH]c1C(F)(F)C(F)(F)F [compound 1159] | >5
CC(C)C(C)NC(=O)c1cc(Cl)c(C(F)(F)C(F)(F)Cl)[nH]c1=O (centres unmarked) [compound 1578] | >5
CN(C)C(=O)c1cc(Br)c(C(F)(Cl)C(F)(F)F)[nH]c1=O (centres unmarked) [compound 2085] | >5
Cc1[nH]c(=O)c(C(=O)NCCC(C)C)cc1Cl [compound 2290] | >5

Tested on: Brassica napus
Test: Drought stress test on sprayed greenhouse plants, visual damage scoring (Table 3)
Assay type: in vivo
Set-up: key: reduction in damage intensity, damage assessed in %
Conditions: efficacy = reduction in damage intensity, dosage 25 g/ha, spray WP, 600 l/ha water
Protocol: as §1

SMILES | E (BRSNS)
CCOC(=O)C1CCCCN1C(=O)c1cc(C)c(C(F)(F)F)[nH]c1=O (centres unmarked) [compound 204] | >5
Cc1cc(C(=O)NC2CC2)c(=O)[nH]c1C(F)(F)C(F)(F)F [compound 225] | >5
Cc1cc(C(=O)NCC2CC2)c(=O)[nH]c1C(F)(F)C(F)(F)F [compound 233] | >5
C=C(C)CNC(=O)c1cc(C)c(C(F)(F)C(F)(F)F)[nH]c1=O [compound 247] | >5
Cc1cc(C(=O)NC(C)CC(C)C)c(=O)[nH]c1C(F)(F)C(F)(F)F (centres unmarked) [compound 256] | >5
Cc1cc(C(=O)NC(C)C(C)C)c(=O)[nH]c1C(F)(F)C(F)(F)F (centres unmarked) [compound 258] | >5
COCCNC(=O)c1cc(C)c(C(F)(F)C(F)(F)F)[nH]c1=O [compound 266] | >5
CCc1cc(C(=O)NCC(OC)OC)c(=O)[nH]c1C(F)(F)Cl [compound 813] | >5
CCc1cc(C(=O)NC(C)CN(C)C)c(=O)[nH]c1C(F)(F)C(F)(F)Cl (centres unmarked) [compound 933] | >5
CCOC(=O)C1CCCCN1C(=O)c1cc(Cl)c(C(F)(F)Cl)[nH]c1=O (centres unmarked) [compound 1744, 1-({5′-chloro-6′-[chloro(difluoro)methyl]-2′-oxo-1′,2′-dihydropyridin-3′-yl}carbonyl)-piperidine-2-carboxylic acid ethyl ester] | >5
CC(C)CC(C)NC(=O)c1cc(Br)c(C(F)(Cl)C(F)(F)F)[nH]c1=O (centres unmarked) [compound 2016] | >5
CCC(CC)NC(=O)c1cc(Br)c(C(F)(Cl)C(F)(F)F)[nH]c1=O (centres unmarked) [compound 2020] | >5
CNC(=O)c1cc(I)c(C(F)(F)F)[nH]c1=O [compound 2220] | >5
COCCCNC(=O)c1cc(I)c(C(F)C(F)(F)F)[nH]c1=O (centres unmarked) [compound 2233] | >5
Cc1cc(C(=O)NC(C)CC(C)C)c(=O)[nH]c1C(F)(Cl)C(F)(F)F (centres unmarked) [compound 2246] | >5

Same assay, conditions: efficacy = reduction in damage intensity, dosage 50 g/ha, spray WP, 600 l/ha water

SMILES | E (BRSNS)
C=CCNC(=O)c1cc(Br)c(C(F)(F)F)[nH]c1=O [compound 1785] | >5

Same assay, conditions: efficacy = reduction in damage intensity, dosage 250 g/ha, spray WP, 600 l/ha water

SMILES | E (BRSNS)
Cc1cc(C(=O)NCC2CC2)c(=O)[nH]c1C [compound 13] | >5
CCC(C)NC(=O)c1cc(C)c(C)[nH]c1=O (centres unmarked) [compound 29] | >5
CCCC(C)NC(=O)c1cc(C)c(C)[nH]c1=O (centres unmarked) [compound 32, 5,6-Dimethyl-2-oxo-N-(pentan-2-yl)-1,2-dihydropyridine3-carboxamide] | >5
COCCNC(=O)c1cc(C)c(C)[nH]c1=O [compound 46] | >5
CCc1cc(C(=O)NC2CC2)c(=O)[nH]c1C(F)(F)C(F)(F)F [compound 665, N-Cyclopropyl-5-ethyl-2-oxo-6-(pentafluoroethyl)-1,2-dihydropyridine-3-carboxamide] | >5
CCCc1cc(C(=O)NCCCOC)c(=O)[nH]c1C(F)(F)C(F)(F)F [compound 1154] | >5
C=CCNC(=O)c1cc(Cl)c(C(F)(F)C(F)(F)Cl)[nH]c1=O [compound 1565] | >5
CC(C)C(C)NC(=O)c1cc(Cl)c(C(F)(F)Cl)[nH]c1=O (centres unmarked) [compound 1688] | >5
Cc1cc(C(=O)NC(C)C(F)(F)F)c(=O)[nH]c1C(F)(F)C(F)(F)C(F)(F)F (centres unmarked) [compound 2251] | >5

Tested on: Triticum aestivum
Test: Drought stress test on sprayed greenhouse plants, visual damage scoring (Table 4)
Assay type: in vivo
Conditions: efficacy = reduction in damage intensity, dosage 25 g/ha, spray WP, 600 l/ha water
Protocol: as §1

SMILES | E (TRZAS)
COCCNC(=O)c1cc(C)c(C(F)(F)C(F)(F)F)[nH]c1=O [compound 266] | >5
COCC(C)NC(=O)c1cc(C)c(C(F)(F)C(F)(F)F)[nH]c1=O (centres unmarked) [compound 272] | >5
CCc1cc(C(=O)N(C)CC(=O)OC)c(=O)[nH]c1C(F)(F)C(F)(F)F [compound 770] | >5
CCNC(=O)c1cc(Cl)c(CC)[nH]c1=O [compound 3149] | >5
CCc1[nH]c(=O)c(C(=O)NCCC(C)C)cc1Cl [compound 3170] | >5
CCCc1[nH]c(=O)c(C(=O)NC(C)COC)cc1CC (centres unmarked) [compound 3639] | >5
CCCc1[nH]c(=O)c(C(=O)NCC)cc1Cl [compound 3699] | >5
CCCc1[nH]c(=O)c(C(=O)N(C)CC(=O)OC)cc1Br [compound 3807] | >5
CCCc1[nH]c(=O)c(C(=O)N(C)CC(=O)OC)cc1I [compound 3917] | >5
CCCNC(=O)c1cc(I)c(CCC)[nH]c1=O [compound 3920] | >5
CCCc1[nH]c(=O)c(C(=O)NCCC(C)C)cc1I [compound 3940] | >5

Same assay, conditions: efficacy = reduction in damage intensity, dosage 250 g/ha, spray WP, 600 l/ha water

SMILES | E (TRZAS)
Cc1cc(C(=O)NCCC(C)C)c(=O)[nH]c1C(F)(F)C(F)(F)F [compound 243] | >5
COCCCNC(=O)c1cc(C)c(C(F)(F)C(F)(F)F)[nH]c1=O [compound 274] | >5
CCc1cc(C(=O)NC(C)CN(C)C)c(=O)[nH]c1C(F)(F)C(F)(F)Cl (centres unmarked) [compound 933] | >5
CCc1[nH]c(=O)c(C(=O)NCCC(C)C)cc1C [compound 2840] | >5
COC(=O)CN(C)C(=O)c1cc(C)c(C)[nH]c1=O [compound 4027] | >5
